In patent publication US20250325534A1, “MICROBIOCIDAL TETRAHYDROISOQUINOLINE DERIVATIVES” (SYNGENTA CROP PROTECTION AG, priority 2021, published 2025):

How the values were obtained:
[1] = test system: Alternaria solani; assay: Alternaria solani / tomato / leaf disc (early blight); assay type: in vivo; settings: foliar, inoculated 2 days after application, vs untreated control
[2] = test system: Phaeosphaeria nodorum; assay: Phaeosphaeria nodorum (Septoria nodorum) / wheat / leaf disc preventative (glume blotch); assay type: in vivo; settings: Parastagonospora nodorum, foliar, inoculated 2 days after application
Protocol: Example B9: Phaeosphaeria nodorum (Septoria nodorum)/Wheat/Leaf Disc Preventative (Glume Blotch) Wheat leaf segments cv. Kanzler are placed on agar in a multiwell plate (24-well format) and sprayed with the formulated test compound diluted in water. The leaf disks are inoculated with a spore suspension of the fungus 2 days after application. The inoculated test leaf disks are incubated at 20° C. and 75% relative humidity under a light regime of 12 h light/12 h darkness in a climate cabinet and the activity of a compound is assessed as percent disease control compared to untreated when an appropriate level of disease damage appears in untreated check leaf disks (5-7 days after application).

[3] = test system: Monographella nivalis; assay: Monographella nivalis (Microdochium nivale) / liquid culture (foot rot cereals); assay type: cell-based; settings: 96 h, photometrically 4-5 days after application, read-out: control of Monographella nivalis
Method in brief: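 Microdochium nivale conidia in potato dextrose broth were added to test compound in DMSO and incubated at 24° C. Growth inhibition was measured photometrically 4-5 days after application.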

[4] = test system: Mycosphaerella arachidis; assay: Mycosphaerella arachidis (Cercospora arachidicola) / liquid culture (early leaf spot); assay type: cell-based; settings: 96 h, photometrically 4-5 days after application, read-out: control of Mycosphaerella arachidis
Method in brief: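 Cryostored M. arachidis conidia in potato dextrose broth were added to compound applied as DMSO solution. Incubated at 24 °C; growth inhibition measured photometrically 4-5 days after application.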

[5] = test system: Pyrenophora teres; assay: Pyrenophora teres / barley / leaf disc preventative (net blotch); assay type: in vivo; settings: foliar, inoculated 2 days after application
Protocol: Example B16: Pyrenophora teres/Barley/Leaf Disc Preventative (Net Blotch) Barley leaf segments cv. Hasso are placed on agar in a multiwell plate (24-well format) and sprayed with the formulated test compound diluted in water. The leaf segments are inoculated with a spore suspension of the fungus 2 days after application. The inoculated leaf segments are incubated at 20° C. and 65% relative humidity under a light regime of 12 h light/12 h darkness in a climate cabinet and the activity of a compound is assessed as disease control compared to untreated when an appropriate level of disease damage appears in untreated check leaf segments (5-7 days after application).

[6] = test system: Mycosphaerella graminicola; assay: Mycosphaerella graminicola (Septoria tritici) / liquid culture (Septoria blotch); assay type: cell-based; settings: Zymoseptoria tritici, 96 h, photometrically 4-5 days after application, read-out: control of Mycosphaerella graminicola
Method in brief: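 Conidia from cryogenic storage mixed into potato dextrose broth, added to test compound in DMSO. Plates incubated at 24° C; growth inhibition read photometrically 4-5 days after application.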

[7] = test system: Botryotinia fuckeliana; assay: Botryotinia fuckeliana (Botrytis cinerea) / liquid culture (gray mould); assay type: cell-based; settings: 72 h, growth inhibition photometrically 3-4 days after application, read-out: control of Botryotinia fuckeliana
Protocol: Example B2: Botryotinia Fuckeliana (Botrytis cinerea)/Liquid Culture (Gray Mould) Conidia of the fungus from cryogenic storage are directly mixed into a nutrient broth (Vogels broth). After placing a DMSO solution of test compound into a microtiter plate (96-well format), the nutrient broth containing the fungal spores is added. The test plates are incubated at 24° C. and the inhibition of growth is determined photometrically 3-4 days after application.

[8] = test system: Glomerella lagenarium; assay: Glomerella lagenarium (Colletotrichum lagenarium) / liquid culture (anthracnose); assay type: cell-based; settings: Colletotrichum orbiculare, 72 h, photometrically 3-4 days after application, read-out: control of Glomerella lagenarium
Method in brief: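 Conidia in potato dextrose broth added to test compound delivered as DMSO solution in microtiter plates; incubation at 24° C. Growth inhibition read photometrically 3-4 days after application.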

[9] = test system: Blumeria graminis f. sp. tritici; assay: Blumeria graminis f. sp. tritici / wheat / leaf disc preventative (powdery mildew); assay type: in vivo; settings: foliar, inoculated 1 day after application
Protocol: Example B7: Blumeria graminis f. Sp. Tritici (Erysiphe graminis f. Sp. Tritici)/Wheat/Leaf Disc Preventative (Powdery Mildew on Wheat) Wheat leaf segments cv. Kanzler are placed on agar in a multiwell plate (24-well format) and sprayed with the formulated test compound diluted in water. The leaf disks are inoculated by shaking powdery mildew infected plants above the test plates 1 day after application. The inoculated leaf disks are incubated at 20° C. and 60% relative humidity under a light regime of 24 h darkness followed by 12 h light/12 h darkness in a climate chamber and the activity of a compound is assessed as percent disease control compared to untreated when an appropriate level of disease damage appears on untreated check leaf segments (6-8 days after application).

C[C@H]1c2ccccc2[C@@](C)(c2cnn(C)c2)CN1C(=O)c1cc(-c2ccccc2)on1 [Compound P-2, [(1S,4S)-1,4-dimethyl-4-(1-methylpyrazol-4-yl)-1,3-dihydroisoquinolin-2-yl]-(5-phenylisoxazol-3-yl)methanone]
≥ 80%: pest or weed control at 200 ppm [1] | pest or weed control at 200 ppm [2] | inhibition of growth at 20 ppm [3] | inhibition of growth at 20 ppm [4] | pest or weed control at 200 ppm [5] | inhibition of growth at 20 ppm [6]

CC1c2ccccc2C(C)(c2cnn(C)c2F)CN1C(=O)c1cc(-c2ccc(F)cc2F)on1 (stereo not shown) [Compound P-11, [5-(2,4-difluorophenyl)isoxazol-3-yl]-[4-(5-fluoro-1-methyl-pyrazol-4-yl)-1,4-dimethyl-1,3-dihydroisoquinolin-2-yl]methanone]
≥ 80%: pest or weed control at 200 ppm [1] | inhibition of growth at 20 ppm [7] | inhibition of growth at 20 ppm [8] | pest or weed control at 200 ppm [9] | pest or weed control at 200 ppm [2] | inhibition of growth at 20 ppm [3] | inhibition of growth at 20 ppm [4] | inhibition of growth at 20 ppm [6]

COc1ccc2c(c1)C(C)N(C(=O)c1cc(-c3ccc(F)cc3F)on1)CC2(C)c1cnn(C)c1 (stereo not shown) [Compound P-18, [5-(2,4-difluorophenyl)isoxazol-3-yl]-[7-methoxy-1,4-dimethyl-4-(1-methylpyrazol-4-yl)-1,3-dihydroisoquinolin-2-yl]methanone]
≥ 80%: pest or weed control at 200 ppm [1] | inhibition of growth at 20 ppm [8] | inhibition of growth at 20 ppm [3] | inhibition of growth at 20 ppm [4] | pest or weed control at 200 ppm [5] | inhibition of growth at 20 ppm [6]

Cn1ncc(C2CN(C(=O)c3cc(-c4ccc(F)cc4F)on3)Cc3ccccc32)c1Br (stereo not shown) [Compound P-45, [4-(5-bromo-1-methyl-pyrazol-4-yl)-3,4-dihydro-1H-isoquinolin-2-yl]-[5-(2,4-difluorophenyl)isoxazol-3-yl]methanone]
≥ 80%: pest or weed control at 200 ppm [1] | inhibition of growth at 20 ppm [7] | inhibition of growth at 20 ppm [8] | pest or weed control at 200 ppm [2] | inhibition of growth at 20 ppm [3] | inhibition of growth at 20 ppm [4] | pest or weed control at 200 ppm [5] | inhibition of growth at 20 ppm [6]

COc1ccc2c(c1)CN(C(=O)c1cc(-c3ccc(F)cc3F)on1)CC2c1cnn(C)c1 (stereo not shown) [Compound P-51, [5-(2,4-difluorophenyl)isoxazol-3-yl]-[7-methoxy-4-(1-methylpyrazol-4-yl)-3,4-dihydro-1H-isoquinolin-2-yl]methanone]
≥ 80%: pest or weed control at 200 ppm [1] | inhibition of growth at 20 ppm [8] | pest or weed control at 200 ppm [2] | inhibition of growth at 20 ppm [3] | inhibition of growth at 20 ppm [4] | pest or weed control at 200 ppm [5] | inhibition of growth at 20 ppm [6]

Cc1c(C2CN(C(=O)c3cc(-c4ccccc4F)no3)Cc3ccccc32)cnn1C (stereo not shown) [Compound P-110, [4-(1,5-dimethylpyrazol-4-yl)-3,4-dihydro-1H-isoquinolin-2-yl]-[3-(2-fluorophenyl)isoxazol-5-yl]methanone]
≥ 80%: pest or weed control at 200 ppm [1] | inhibition of growth at 20 ppm [7] | inhibition of growth at 20 ppm [8] | pest or weed control at 200 ppm [2] | inhibition of growth at 20 ppm [3] | inhibition of growth at 20 ppm [4] | pest or weed control at 200 ppm [5] | inhibition of growth at 20 ppm [6]

Cc1nn(C)c(C)c1C1CN(C(=O)c2cc(-c3ccccc3F)on2)Cc2ccccc21 (stereo not shown) [Compound P-117, [5-(2-fluorophenyl)isoxazol-3-yl]-[4-(1,3,5-trimethylpyrazol-4-yl)-3,4-dihydro-1H-isoquinolin-2-yl]methanone]
≥ 80%: inhibition of growth at 20 ppm [8] | pest or weed control at 200 ppm [2] | inhibition of growth at 20 ppm [3] | inhibition of growth at 20 ppm [4] | pest or weed control at 200 ppm [5] | inhibition of growth at 20 ppm [6]

Cc1c(C2CN(C(=O)c3cc(-c4ccc(F)cc4)on3)Cc3ccccc32)cnn1C (stereo not shown) [Compound P-120, [4-(1,5-dimethylpyrazol-4-yl)-3,4-dihydro-1H-isoquinolin-2-yl]-[5-(4-fluorophenyl)isoxazol-3-yl]methanone]
≥ 80%: pest or weed control at 200 ppm [1] | inhibition of growth at 20 ppm [7] | inhibition of growth at 20 ppm [8] | pest or weed control at 200 ppm [2] | inhibition of growth at 20 ppm [3] | inhibition of growth at 20 ppm [4] | pest or weed control at 200 ppm [5] | inhibition of growth at 20 ppm [6]

Cc1nn(C)c(C)c1C1CN(C(=O)c2cc(-c3ccc(F)cc3F)on2)Cc2ccccc21 (stereo not shown) [Compound P-126, [5-(2,4-difluorophenyl)isoxazol-3-yl]-[4-(1,3,5-trimethylpyrazol-4-yl)-3,4-dihydro-1H-isoquinolin-2-yl]methanone]
≥ 80%: pest or weed control at 200 ppm [1] | inhibition of growth at 20 ppm [8] | inhibition of growth at 20 ppm [3] | inhibition of growth at 20 ppm [4] | pest or weed control at 200 ppm [5] | inhibition of growth at 20 ppm [6]

Cn1cc(C2CN(C(=O)c3cc(-c4c(F)cc(F)cc4F)on3)Cc3ccccc32)cn1 (stereo not shown) [Compound P-136, [4-(1-methylpyrazol-4-yl)-3,4-dihydro-1H-isoquinolin-2-yl]-[5-(2,4,6-trifluorophenyl)isoxazol-3-yl]methanone]
≥ 80%: pest or weed control at 200 ppm [1] | pest or weed control at 200 ppm [2] | inhibition of growth at 20 ppm [3] | pest or weed control at 200 ppm [5] | inhibition of growth at 20 ppm [6]

Cc1ccc2c(c1)C(C)(c1cnn(C)c1)CN(C(=O)c1cc(-c3ccc(F)cc3F)on1)C2C (stereo not shown) [Compound P-216, [5-(2,4-difluorophenyl)isoxazol-3-yl]-[1,4,6-trimethyl-4-(1-methylpyrazol-4-yl)-1,3-dihydroisoquinolin-2-yl]methanone]
≥ 80%: inhibition of growth at 20 ppm [7] | inhibition of growth at 20 ppm [8] | inhibition of growth at 20 ppm [3] | pest or weed control at 200 ppm [5] | inhibition of growth at 20 ppm [6]

Cc1c(C2CN(C(=O)c3noc(-c4ccc(F)cc4F)n3)Cc3ccccc32)cnn1C (stereo not shown) [Compound P-228, [5-(2,4-difluorophenyl)-1,2,4-oxadiazol-3-yl]-[4-(1,5-dimethylpyrazol-4-yl)-3,4-dihydro-1H-isoquinolin-2-yl]methanone]
≥ 80%: pest or weed control at 200 ppm [1] | inhibition of growth at 20 ppm [8] | inhibition of growth at 20 ppm [3] | inhibition of growth at 20 ppm [4] | pest or weed control at 200 ppm [5] | inhibition of growth at 20 ppm [6]
